According to patent US20230104283A1, “JNK INHIBITOR, AND PHARMACEUTICAL COMPOSITION AND USE THEREOF” (WUHAN LL SCIENCE AND TECHNOLOGY DEVELOPMENT CO. , LTD, priority 2019, published 2023):

Key:
JNK1 kinase = biological target: T1, JNK1 kinase (Homo sapiens, UniProt P45983); assay: JNK1 activity screening (time-resolved fluorometric HTRF kinase assay); assay type: biochemical; details: enzymatic assay, activity level
T1 construct: purchased Carna Biosciences 04-163

[1] = system: RAW264.7 phosphorylated c-Jun (Ser63); assay: RAW264.7 phosphorylated c-Jun whole cell assay; assay type: cell-based; details: Mus musculus; cytological assay, activity level; lipopolysaccharide-activated RAW264.7 cells, phospho-c-Jun (Ser63) ELISA
How it was run: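 Mouse RAW264.7 macrophages (2×10^5/well) were pretreated with compound for 30 min (0.2% DMSO), then stimulated with lipopolysaccharide for 1 h. Phospho-c-Jun (Ser63) in whole-cell lysates was quantified by sandwich ELISA.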

[2] = Stability observed during preparation; assay type: physicochemical; details: isolated compound; acid, base, water vapor
Procedure: (1R,3R,4R)-5-amino-2-methylcyclohexanol hydrochloride (57 mg, 0.342 mmol) and DIEA (132 mg, 1.026 mmol) were added to a solution of compound T041-3 (100 mg, 0.342 mmol) in isopropanol (3 mL) at room temperature with stirring. After stirring at room temperature for 3 h, the reaction was completed. The reaction mixture was added with water and extracted with ethyl acetate, and the organic phase was washed with saturated brine and dried over anhydrous sodium sulfate. The reaction mixture was concentrated under reduced pressure, purified by preparative high performance liquid chromatography (ammonium bicarbonate method) and lyophilized to give 40 mg of a white solid with a yield of 34%.

T1 sequence (P45983 whole entry): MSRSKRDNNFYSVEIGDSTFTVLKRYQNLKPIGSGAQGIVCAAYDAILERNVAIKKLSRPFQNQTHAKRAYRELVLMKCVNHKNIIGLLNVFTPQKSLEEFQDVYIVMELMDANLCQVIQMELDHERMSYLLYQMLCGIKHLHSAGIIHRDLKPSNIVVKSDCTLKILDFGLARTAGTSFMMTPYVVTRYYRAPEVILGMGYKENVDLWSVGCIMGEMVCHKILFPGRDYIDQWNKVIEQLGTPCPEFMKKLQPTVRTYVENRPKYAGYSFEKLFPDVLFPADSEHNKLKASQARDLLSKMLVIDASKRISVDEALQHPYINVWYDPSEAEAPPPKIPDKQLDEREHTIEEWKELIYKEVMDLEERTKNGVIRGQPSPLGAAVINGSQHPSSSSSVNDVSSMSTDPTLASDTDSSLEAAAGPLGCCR

Row | IC50 (JNK1 kinase) [nM] | IC50 [1] [nM] | Structure (SMILES) | stability of the compound [2]
1 | > 1000 | > 1000 | C[C@@H]1CC[C@@H](Nc2cc(NC3CCCC(O)C3)ncc2C(N)=O)C[C@H]1O (stereo partly drawn) [Compound T053, 4-(((1R,3R,4R)-3-hydroxy-4-methylcyclohexyl)amino)-6-((3-hydroxycyclohexyl)amino) nicotinamide] | –
2 | > 1000 | > 1000 | C[C@@H]1CC[C@@H](Nc2cc(NC3CCCCC3)ncc2C(N)=O)C[C@H]1O [Compound T054, 6-(cyclohexylamino)-4-(((1R,3R,4R)-3-hydroxy-4-methylcyclohexyl)amino) nicotinamide] | –
3 | > 1000 | > 1000 | C[C@@H]1CC[C@@H](Nc2cc(NC3CCCC3O)ncc2C(N)=O)C[C@H]1O (stereo partly drawn) [Compound T055, 4-(((1R,3R,4R)-3-hydroxy-4-methylcyclohexyl)amino)-6-((2-hydroxycyclopentyl)amino)nicotinamide] | –
4 | 500 to 1000 | > 1000 | C[C@@H]1CC[C@@H](Nc2cc(NC3CCCC3)ncc2C(N)=O)C[C@H]1O [Compound T056, 6-(cyclopentylamino)-4-(((1R,3R,4R)-3-hydroxy-4-methylcyclohexyl)amino) nicotinamide] | –
5 | > 1000 | > 1000 | C[C@@H]1CC[C@@H](Nc2cc(NC(C)(C)F)ncc2C(N)=O)C[C@H]1O [Compound T057, 6-((2-fluoropropan-2-yl)amino)-4-(((1R, 3R,4R)-3-hydroxy-4-methylcyclohexyl)amino)nicotinamide] | –
6 | > 1000 | > 1000 | C[C@@H]1CC[C@@H](Nc2cc(NC3CC3)ncc2C(N)=O)C[C@H]1O [Compound T058, 6-(cyclopropylamino)-4-(((1R,3R,4R)-3-hydroxy-4-methylcyclohexyl)amino) nicotinamide] | –
7 | > 1000 | > 1000 | C[C@@H]1CC[C@@H](Nc2cc(NC3CC3O)ncc2C(N)=O)C[C@H]1O (stereo partly drawn) [Compound T059, 4-(((1R,3R,4R)-3-hydroxy-4-methylcyclohexyl)amino)-6-((2-hydroxycyclopropyl)amino)nicotinamide] | –
8 | > 1000 | > 1000 | C[C@@H]1CC[C@@H](Nc2cc(NC3C4C[C@H]43)ncc2C(N)=O)C[C@H]1O (stereo partly drawn) [Compound T060, 6-(((1R,2R)-bicyclo[1 1.0]butan-2-yl)amino)-4-(((1R,3R,4R)-3-hydroxy-4-methylcyclohexyl)amino)nicotinamide] | –
9 | > 1000 | > 1000 | C[C@@H]1CC[C@@H](Nc2nc(NC(C)(C)C)ncc2[N+](=O)[O-])C[C@H]1O [Compound T062, (1R,2R,5R)-5-((2-(tert-butylamino)-5-nitropyrimidin-4-yl)amino)-2-methylcyclohex-1-ol] | –
10 | > 1000 | > 1000 | C[C@@H]1CC[C@@H](Nc2nc(NC(C)(C)C)ncc2N)C[C@H]1O [Compound T063, (1R,2R,5R)-5-((5-amino-2-(tert-butylamino)pyrimidin-4-yl)amino)-2-methylcyclohexan-1-ol] | –
11 | 500 to 1000 | > 1000 | C#Cc1cnc(NC(C)(C)C)nc1N[C@@H]1CC[C@@H](C)[C@H](O)C1 [Compound T064, (1R,2R,5R)-5-((2-(ter-butylamino)-5-ethynylpyrimidin-4-yl)amino)-2-methylcyclohex-1-ol] | –
12 | > 1000 | > 1000 | CC#Cc1cnc(NC(C)(C)C)nc1N[C@@H]1CC[C@@H](C)[C@H](O)C1 [Compound T065, (1R,2R,5R)-5-((2-(tert-butylamino)-5-(prop-1-yn-1-yl)pyrimidin-4-yl)amino)-2-methylcyclohexan-1-ol] | –
13 | > 1000 | > 1000 | C=Cc1cnc(NC(C)(C)C)nc1N[C@@H]1CC[C@@H](C)[C@H](O)C1 [Compound T066, (1R,2R,5R)-5-((2-(tert-butylamino)-5-vinylpyrimidin-4-yl)amino)-2-methylcyclohex-1-ol] | –
14 | 100 to 500 | 100 to 500 | CC(=O)c1cnc(NC(C)(C)C)nc1N[C@@H]1CC[C@@H](C)[C@H](O)C1 [Compound T067, 1-(2-(tert-butylamino)-4-(((1R,3R,4R)-3-hydroxy-4-methylcyclohexyl)amino)pyrimidin-5-yl)ethan-1-one] | –
15 | 100 to 500 | 100 to 500 | C[C@@H]1CC[C@@H](Nc2nc(NC(C)(C)C)ncc2C(=O)C2CC2)C[C@H]1O [Compound T068, (2-(tert-butylamino)-4-(((1R,3R,4R)-3-hydroxy-4-methylcyclohexyl)amino)pyrimidin-5-yl)(cyclopropyl)methanone] | –
16 | 100 to 500 | 100 to 500 | CCC(=O)c1cnc(NC(C)(C)C)nc1N[C@@H]1CC[C@@H](C)[C@H](O)C1 [Compound T069, 1-(2-(tert-butylamino)-4-(((1R,3R,4R)-3-hydroxy-4-methylcyclohexyl)amino)pyrimidin-5-yl)propan-1-one] | –
17 | 500 to 1000 | > 1000 | CC(C)C(=O)c1cnc(NC(C)(C)C)nc1N[C@@H]1CC[C@@H](C)[C@H](O)C1 [Compound T070, 1-(2-(tert-butylamino)-4-(((1R,3R,4R)-3-hydroxy-4-methylcyclohexyl)amino)pyrimidin-5-yl)-2-methylpropan-1-one] | –
18 | 500 to 1000 | > 1000 | CC(=O)c1cnc(NC(C)(C)C(F)(F)F)nc1N[C@@H]1CC[C@@H](C)[C@H](O)C1 [Compound T071, 1-(4-(((1R,3R,4R)-3-hydroxy-4-methylcyclohexyl)amino)-2-((1,1,1-trifluoro-2-methylpropan-2-yl)amino)pyrimidin-5-yl)ethan-1-one] | –
19 | < 100 | < 100 | C[C@@H]1CC[C@@H](Nc2nc(Nc3ccc(S(C)(=O)=O)cc3)ncc2C(N)=O)C[C@H]1O [Compound T072, 4-(((1R,3R,4R)-3-hydroxy-4-methylcyclohexyl)amino)-2-((4-(methylsulfonyl)phenyl)amino) pyrimidine-5-carboxamide] | –
20 | < 100 | 100 to 500 | C[C@@H]1CC[C@@H](Nc2nc(Nc3ccc(N4CCN(C)CC4)cc3)ncc2C(N)=O)C[C@H]1O [Compound T073, 4-(((1R,3R,4R)-3-hydroxy-4-methylcyclohexyl)amino)-2-((4-(4-methylpiperazin-1-yl)phenyl)amino)pyrimidine-5-carboxamide] | –
21 | < 100 | < 100 | COc1ccc(CNc2ncc(C(N)=O)c(N[C@@H]3CC[C@@H](C)[C@H](O)C3)n2)cc1 [Compound T074, 4-(((1R,3R,4R)-3-hydroxy-4-methylcyclohexyl)amino)-2-((4-methoxybenzyl)amino)pyrimidine-5-carboxamide] | –

Row | Structure (SMILES) | IC50 (JNK1 kinase) [nM] | IC50 [1] [nM] | stability of the compound [2]
22 | C[C@@H]1CC[C@@H](Nc2nc(OC(C)(C)C)ncc2Br)C[C@H]1O [Compound T041, (1R,2R,5R)-5-((5-bromo-2-(tert-butoxy)pyrimidin-4-yl)amino)-2-methylcyclohexan-l-ol] | 500 to 1000 | > 1000 | unstable due to susceptibility to acid, base, water vapor and the like
